Patent publication US11339193B2, “CDP protein secretion inhibitors” (KEZAR LIFE SCIENCES, priority 2018, dated 2022)
Read-outs that look alike come from different tables or passages of the source. Numbered stars: 1 amine (or outer) side, 2 acyl side, 3 side chain; on linkers, the order of the positions; unused ones are H or OH. Square brackets hold non-standard residues; d marks the D form. Peptide text beside a SMILES is read from it. NMeAla(5-Cl-benzothien-3-yl) = CN[C@@H](Cc1csc2ccc(Cl)cc12)C(=O)O; X13 = CN([C@@H](Cc1cn(Cc2ccc(Br)cc2)c2ccc(F)cc12)C(=O)[*:2])[*:1]; X19 = CN([C@@H](Cc1cn(Cc2ccc(Cl)cc2)c2ccccc12)C(=O)[*:2])[*:1]; X18 = Cc1ccc(Cn2cc(C[C@@H](C(=O)[*:2])N(C)[*:1])c3ccccc32)cc1; X15 = CCn1cc(C[C@@H](C(=O)[*:2])N(C)[*:1])c2ccccc21; Ala(1-cyclohexenyl) = N[C@@H](CC1=CCCCC1)C(=O)O; Butanoyl(2R-oxy,4-CN) = N#CCC[C@@H](O)C(=O)O; X22 = CCCC[C@@H](C)C[C@H](N[*:1])C(=O)[*:2]; X23 = CN([C@@H](CC1=CCCCC1)C(=O)[*:2])[*:1]; X21 = CN([C@@H](CC1=CCCC1)C(=O)[*:2])[*:1]; Abu(4,4,4-F3) = N[C@@H](CC(F)(F)F)C(=O)O; X12 = O=C([C@H](CC1=CCCC1)N[*:1])[*:2]; NMeCha = CN[C@@H](CC1CCCCC1)C(=O)O; Cha = N[C@@H](CC1CCCCC1)C(=O)O; NMeL = CN[C@@H](CC(C)C)C(=O)O; NMeA = CN[C@@H](C)C(=O)O; Nva = CCC[C@H](N)C(=O)O; Abu = CC[C@H](N)C(=O)O

Columns and labels:
Assay type in all cases: cell-based
[1] = tested on: Prl-ss+10aa/Gaussia Luciferase; test: Prl-ss-Gluc assay (constitutively active or 24 hr Dox inducible); conditions: read-out: Prl IC50
Source text: Constitutively Active Prl-ss-Gluc Assay
Flp-In 293 T-REx™ cells were transfected with pcDNA™5/FRT plasmid inserted with cDNA encoding Gaussia Luciferase fused to the 3′ end of cDNA encoding Prl signal sequence plus 10 amino acids (N-[…]-C) (SEQ ID NO:4). Transfected cells were selected for resistance to the selectable markers Hygromycin and Blasticidin to create a stable cell line that constitutively expressed the Prlss+10aa/Gaussia Luciferase fusion protein. The day before assay, cells were trypsinized and plated in 384-well tissue culture plates. The next day, culture media was removed from the wells and replaced with fresh media. Compound dilutions in DMSO/media were added to the wells and incubated at 37° C., 5% CO2.
24 hr Dox Inducible Prl-ss-Gluc Assay
(§1) Flp-In 293 T-REx™ cells were transfected with pcDNA™5/FRT/TO plasmid inserted with cDNA encoding Gaussia Luciferase fused to the 3′ end of cDNA encoding Prl signal sequence plus 10 amino acids (N-[…]-C) (SEQ ID NO:5). Transfected cells were selected for resistance to the selectable markers Hygromycin and Blasticidin to create a stable cell line that contained the Prl-ss+10aa/Gaussia Luciferase cDNA insert whose expression was regulated under the T-REx™ system. The day before assay, cells were trypsinized and plated in 384-well tissue culture plates. The next day, compound dilutions in DMSO/media containing doxycycline were added to the wells and incubated at 37° C., 5% CO2.

[2] = tested on: TNFα-FL/Gaussia Luciferase; test: Dox induced TNFα-FL-Gluc assay; conditions: read-out: TNFa FL Gluc IC50
Source text: Dox Induced TNFα-FL-Gluc Assay
Flp-In 293 T-REx™ cells were transfected with pcDNA™5/FRT/TO plasmid inserted with cDNA encoding Gaussia Luciferase fused to the 3′ end of cDNA encoding full length TNFα (amino acids 1-233). Transfected cells were selected for resistance to the selectable markers Hygromycin and Blasticidin to create a stable cell line that contained the TNFα-FL/Gaussia Luciferase cDNA insert whose expression was regulated under the T-REx™ system. The day before assay, cells were trypsinized and plated in 384-well tissue culture plates. The next day, compound dilutions in DMSO/media containing doxycycline were added to the wells and incubated at 37° C., 5% CO2.

[3] = tested on: NCI-H929 multiple myeloma cell line; test: H929 assay (cell viability, Celltiter-Glo); conditions: Homo sapiens, NCI-H929, read-out: H929 EC50
Description: The human multiple myeloma cell line NCI-H929 was cultured in Advanced RPMI 1640 media (Gibco@) supplemented with 6% fetal bovine serum, 2 mM Glutamine, and 1× Penicillin/Streptomycin. On the day of assay, cells were resuspended in RPMI 1640 media supplemented with 10% fetal bovine serum, 2 mM Glutamine, and 1× Penicillin/Streptmycin and plated in 384-well tissue culture plates and treated with compound dilutions in DMSO/media. Plates were incubated at 37° C., 5% CO2 for 48 hours. After 48 hours, Celltiter-Glo@ (Promega) was added to each well and luciferase signal was quantified using Tecan Infinite M1000 Pro for cell viability determination.

[4] = tested on: PD1-ss+10aa/Gaussia Luciferase; test: Dox induced PD1-ss-Gluc assay; conditions: read-out: PD1ss Gluc IC50
Source text: Dox Induced PD1-ss-Gluc Assay
as §1, with “PD1” for “Prl”, “NO:3).” for “NO:5).”, “PD1-ss+10aa/Gaussia” for “Prl-ss+10aa/Gaussia”

HER3ss-Gluc = test: HER3ss assay; conditions: read-out: HER3 ss IC50
Description: The mature domain of secreted luciferase from Gaussia princeps (GLuc) was cloned into pcDNA5/FRT/TO. The signal sequence plus four amino acids of the mature domain from HER3 ([…]) (SEQ ID NO:8) were cloned upstream of GLuc mature domain and used in transient transfection experiment. HEK-293T T-rex cells were cultured in Dulbecco's modified Eagle's medium with 10% FBS at 5% CO2. Cells were plated 1×10e6 cells per well in a 6-well plate and incubated for 6 h. Cells were transiently transfected with HER3ss-Gluc using Lipofectamine 2000 (Invitrogen). After overnight incubation, transfected cells were replated in a clear-bottomed, black 96-well plate at a density of 20,000 cells per well. Six hours after plating, the cells were treated with doxycycline (1 μg/ml) and increasing concentrations of the indicated compounds for 24 h. Secreted luciferase in the conditioned media was quantified by luminescence using the BioLux Gaussia Luciferase Assay Kit (New England Biolabs, Ipswich, Mass., USA) and a SpectraMax M5 plate reader (Molecular Devices).

[5] = tested on: U266B1 multiple myeloma cell line; test: U266 assay (cell viability, Celltiter-Glo); conditions: Homo sapiens, U-266
Description: Cells were plated in 384-well tissue culture plates and treated with compound dilutions in DMSO/media. Plates were incubated at 37° C., 5% CO2 for 48 hours. After 48 hours, Celltiter-Glo@ (Promega) was added to each well and luciferase signal was quantified using Tecan Infinite M1000 Pro for cell viability determination.

[6] = Flp-In 293 T-REx cells, 24 hours
[7] = Flp-In 293 T-REx cells, doxycycline, 24 hours
[8] = HEK-293T T-rex cells, transient transfection, doxycycline, 24 h

Structure (SMILES)	IC50 [1, 6] [nM]	IC50 [2, 7] [nM]	EC50 ([3]; 48 hours, cell viability) [nM]	IC50 [4, 7] [nM]	IC50 (HER3ss-Gluc; [8]) [nM]	IC50 ([1]; I.A.) [nM]	EC50 ([5]; I.A.) [nM]	EC50 ([5]; 48 hours, cell viability) [nM]	IC50 (HER3ss-Gluc; I.A.) [nM]	IC50 ([2]; I.A.) [nM]	IC50 ([4]; I.A.) [nM]	EC50 ([3]; I.A.) [nM]
CCCC[C@@H](C)C[C@@H]1NC(=O)[C@H](CC2CCCCC2)N(C)C(=O)[C@H](CC)NC(=O)[C@H](CC(C)C)N(C)C(=O)[C@H](C[C@H](C)CCCC)NC(=O)[C@@H](CCC#N)OC(=O)[C@H](C)N(C)C1=O [C-43] (cyclo([Abu][NMeCha][X22][NMeA][Butanoyl(2R-oxy,4-CN)][X22][NMeL]))	1530	211	593	67	–	–	–	–	–	–	–	–
CCCC[C@@H](C)C[C@@H]1NC(=O)[C@H](CC2CCCCC2)N(C)C(=O)[C@H](CCC)NC(=O)[C@H](CC(C)C)N(C)C(=O)[C@H](C[C@H](C)CCCC)NC(=O)[C@@H](CCC#N)OC(=O)[C@H](C)N(C)C1=O [C-44] (cyclo([NMeA][Butanoyl(2R-oxy,4-CN)][X22][NMeL][Nva][NMeCha][X22]))	740	109	376	37	–	–	–	–	–	–	–	–
CCCC[C@@H](C)C[C@@H]1NC(=O)[C@H](CC2CCCCC2)N(C)C(=O)[C@H](CC(C)C)NC(=O)[C@H](CC(C)C)N(C)C(=O)[C@H](CC2CCCCC2)NC(=O)[C@@H](CCC#N)OC(=O)[C@H](C)N(C)C1=O [C-45] (cyclo([Cha][NMeL]L[NMeCha][X22][NMeA][Butanoyl(2R-oxy,4-CN)]))	2500	911	4910	248	–	–	–	–	–	–	–	–
CC(C)C[C@@H]1NC(=O)[C@H](Cc2csc3ccc(Cl)cc23)N(C)C(=O)[C@H](CC(C)C)NC(=O)[C@H](CC(C)C)N(C)C(=O)[C@H](CC(F)(F)F)NC(=O)[C@@H](CCC#N)OC(=O)[C@H](C)N(C)C1=O [C-67] (cyclo(L[NMeA][Butanoyl(2R-oxy,4-CN)][Abu(4,4,4-F3)][NMeL]L[NMeAla(5-Cl-benzothien-3-yl)]))	–	754	4090	397	9	–	–	–	–	–	–	–
CCn1cc(C[C@H]2C(=O)N[C@@H](CC(C)C)C(=O)N(C)[C@@H](C)C(=O)O[C@H](CCC#N)C(=O)N[C@@H](CC(F)(F)F)C(=O)N(C)[C@@H](CC(C)C)C(=O)N[C@@H](CC(F)(F)F)C(=O)N2C)c2ccccc21 [C-79] (cyclo(L[NMeA][Butanoyl(2R-oxy,4-CN)][Abu(4,4,4-F3)][NMeL][Abu(4,4,4-F3)][X15]))	–	1490	4740	390	112	> 25000	> 25000	–	–	–	–	–
CC(C)C[C@@H]1NC(=O)[C@H](Cc2csc3ccc(Cl)cc23)N(C)C(=O)[C@H](CC(C)C)NC(=O)[C@H](CC2=CCCCC2)N(C)C(=O)[C@H](CC(F)(F)F)NC(=O)[C@@H](CCC#N)OC(=O)[C@H](C)N(C)C1=O [C-80] (cyclo(L[NMeA][Butanoyl(2R-oxy,4-CN)][Abu(4,4,4-F3)][X23]L[NMeAla(5-Cl-benzothien-3-yl)]))	23700	–	3440	–	–	–	–	5680	> 25000	> 25000	> 25000	–
CC(C)C[C@@H]1NC(=O)[C@H](Cc2csc3ccc(Cl)cc23)N(C)C(=O)[C@H](CC(C)C)NC(=O)[C@H](CC2=CCCC2)N(C)C(=O)[C@H](CC(F)(F)F)NC(=O)[C@@H](CCC#N)OC(=O)[C@H](C)N(C)C1=O [C-81] (cyclo(L[NMeA][Butanoyl(2R-oxy,4-CN)][Abu(4,4,4-F3)][X21]L[NMeAla(5-Cl-benzothien-3-yl)]))	–	–	–	934	88	> 25000	> 25000	–	–	> 25000	–	> 25000
CC(C)C[C@@H]1NC(=O)[C@H](Cc2cn(Cc3ccc(Br)cc3)c3ccc(F)cc23)N(C)C(=O)[C@H](CC(F)(F)F)NC(=O)[C@H](CC(C)C)N(C)C(=O)[C@H](CC(F)(F)F)NC(=O)[C@@H](CCC#N)OC(=O)[C@H](C)N(C)C1=O [C-82] (cyclo(L[NMeA][Butanoyl(2R-oxy,4-CN)][Abu(4,4,4-F3)][NMeL][Abu(4,4,4-F3)][X13]))	506	104	649	42	98	–	> 25000	–	–	–	–	–
Cc1ccc(Cn2cc(C[C@H]3C(=O)N[C@@H](CC(C)C)C(=O)N(C)[C@@H](C)C(=O)O[C@H](CCC#N)C(=O)N[C@@H](CC(F)(F)F)C(=O)N(C)[C@@H](CC(C)C)C(=O)N[C@@H](CC(F)(F)F)C(=O)N3C)c3ccccc32)cc1 [C-83] (cyclo(L[NMeA][Butanoyl(2R-oxy,4-CN)][Abu(4,4,4-F3)][NMeL][Abu(4,4,4-F3)][X18]))	1090	103	603	42	81	–	> 25000	–	–	–	–	–
CC(C)C[C@@H]1NC(=O)[C@H](Cc2cn(Cc3ccc(Cl)cc3)c3ccccc23)N(C)C(=O)[C@H](CC(F)(F)F)NC(=O)[C@H](CC(C)C)N(C)C(=O)[C@H](CC(F)(F)F)NC(=O)[C@@H](CCC#N)OC(=O)[C@H](C)N(C)C1=O [C-84] (cyclo(L[NMeA][Butanoyl(2R-oxy,4-CN)][Abu(4,4,4-F3)][NMeL][Abu(4,4,4-F3)][X19]))	802	77	608	37	72	–	> 25000	–	–	–	–	–
CC(C)C[C@@H]1NC(=O)[C@H](Cc2csc3ccc(Cl)cc23)N(C)C(=O)[C@H](CC2=CCCCC2)NC(=O)[C@H](CC(C)C)N(C)C(=O)[C@H](CC2=CCCC2)NC(=O)[C@@H](CCC#N)OC(=O)[C@H](C)N(C)C1=O [C-85] (cyclo(L[NMeA][Butanoyl(2R-oxy,4-CN)][X12][NMeL][Ala(1-cyclohexenyl)][NMeAla(5-Cl-benzothien-3-yl)]))	–	–	–	1140	7	> 25000	> 25000	–	–	> 25000	–	> 25000
CC(C)C[C@@H]1NC(=O)[C@H](Cc2csc3ccc(Cl)cc23)N(C)C(=O)[C@H](CC2=CCCC2)NC(=O)[C@H](CC(C)C)N(C)C(=O)[C@H](CC2=CCCCC2)NC(=O)[C@@H](CCC#N)OC(=O)[C@H](C)N(C)C1=O [C-86] (cyclo(L[NMeA][Butanoyl(2R-oxy,4-CN)][Ala(1-cyclohexenyl)][NMeL][X12][NMeAla(5-Cl-benzothien-3-yl)]))	–	–	–	567	10	> 25000	> 25000	–	–	> 25000	–	> 25000
